Patent US11649220B2 (DEMOTECH.INC., priority 2018, dated 2023)

Tests used:
[1] = system: golden hamsters (60% high-fat food, STZ induced); assay: Golden hamster disease model, animal model induction group (16-week-old group): blood biochemical indexes and body weight; assay type: in vivo; details: for change rate of blood glucose %: 0.1 mL of 6.8 mg/mL DMSO solution + 0.25 mL whole milk by gavage once a day for 2 weeks; for change rate of body weight after deduction of DMSO blank %: DMSO blank deducted; for average body weight after administration/g / change of body weight/g / change rate of body weight %: after gavage once a day for 2 weeks; for HDL % / LDL % / total cholesterol % / triglyceride %: change rate, gavage once a day for 2 weeks
Method: (§1) Animals and feed: 1) 8-week-old male golden hamsters with a body weight range of 100±5 g were selected; 2) 60% high-fat food; 3) 30% high-fat food; 4) general feed: NRC standard feed, containing 5% fat, total calories 4200 kcal/kg.
Animal model induction group (16-week-old group): 1) fed with 60% high-fat food for 2 weeks under standard environment; 2) STZ intraperitoneal injection twice every two days, 50 mg/kg each time; 3) After STZ induction, the golden hamsters were continuous fed for 1 week; 4) Blood was taken from the ocular venous plexus, and the initial body weight, blood glucose, total cholesterol, LDL-c, HDL-c and triglyceride were measured, and the golden hamsters were grouped in parallel according to animal biochemical indicators, 8 in each group; 5) Gavage of compounds: 0.1 mL of solution of compound (concentration: 6.8 mg/mL, DMSO solution) and 0.25 mL of whole milk were mixed evenly and administrated by gavage once a day for 2 weeks; 6) Blank control: 0.1 mL of DMSO and 0.25 mL of whole milk were mixed evenly and administrated by gavage once a day for 2 weeks; 7) Observation time: 14 days later, blood was taken from the ocular venous plexus, and the body weight, blood glucose, total cholesterol, LDL-c, HDL-c and triglyceride were measured.
(§2) Instruments: Shimadzu UV-1750 spectrophotometer, clinical determination kit (Changchun Huili Biotechnology Co., Ltd.)
(§3) Determination of blood glucose: glucose oxidase method, kit
(§4) Determination of total cholesterol (COD-PAP method), kit
(§5) Determination of low density lipoprotein cholesterol (direct method), kit
(§6) Determination of triglyceride (GP-PAP method)
(§7) Determination of high density lipoprotein (direct method), kit

[2] = system: golden hamsters (high-fat food, STZ induced); assay: Golden hamster disease model, animal model induction group (24-week-old group): blood biochemical indexes and body weight; assay type: in vivo; details: for change rate of blood glucode %: 0.1 mL of 6.8 mg/mL DMSO solution + 0.25 mL whole milk by gavage once a day for 2 weeks; for change rate of body weight after deduction of DMSO blank %: DMSO blank deducted; for change of body weight/g / change rate of body weight %: after gavage once a day for 2 weeks; for HDL % / LDL % / total cholesterol % / triglyceride %: change rate, gavage once a day for 2 weeks; for average body weight at 24 weeks/g: initial weight before administration
Excerpt: as §1
Animal model induction group (24-week-old group): After STZ induction, the golden hamsters were continuous fed with 30% high-fat food for 8 weeks, blood was taken from the ocular venous plexus, and the initial body weight, blood glucose concentration, total cholesterol, LDL-c, HDL-c and triglyceride were measured, and the golden hamsters were grouped in parallel according to animal biochemical indicators, 8 in each group; 5) Gavage of compounds: 0.1 mL of solution of compound (concentration: 6.8 mg/mL, DMSO solution) and 0.25 mL of whole milk were mixed evenly and administrated by gavage once a day for 2 weeks; 6) Blank control: 0.1 mL of DMSO and 0.25 mL of whole milk were mixed and administrated by gavage, once a day for 2 weeks; 6) Blank control: 0.1 mL of DMSO were mixed with 0.25 mL of whole milk, and administrated by gavage, once a day for 2 weeks; 7) 14 days later, blood was taken from the ocular venous plexus, and the body weight, blood glucose, total cholesterol, LDL-c, HDL-c and triglyceride were measured.
as §2, §3, §4, §5, §6, §7

[3] = In vitro free radical inhibition test (DPPH method); details: 8 μL of 20 mmol/L compound in 1 mL DPPH 0.059 mg/mL ethanol, 60 min dark, 517 nm; for inhibition rate %: DPPH; for Relative inhibition ability on free radicals: inhibition rate of AGI1067 on DPPH defined as 100
Excerpt: 1. In Vitro Free Radical Inhibition Test (DPPH Method)
The single electron of DPPH radical has a strong absorption at […], and its alcohol solution is purple. In the presence of a free radical scavenger, the absorption of DPPH radical is weakened or disappeared for the reason that the free radical scavenger is paired with the single electron of DPPH radical, and the degree of discoloration is quantitatively related to the number of electrons DPPH radical receives. Therefore, a spectrophotometer can be used to quickly and quantitatively analyze the free radical scavenging rate of the compound.
1) 1 mL solution of DPPH in absolute ethanol (concentration: 0.059 mg/mL) was taken; 2) 8 μL of the compound to be tested (20 mmol/L) were added; 3) after mixing well, the resultant was kept in dark at room temperature for 60 minutes, 4) the absorbance of the sample at 517 nm was measured.

[4] = system: Malondialdehyde (MDA) in serum; assay: In vivo anti-lipid oxidation experiment (serum MDA, TBA method); parameters: inhibition rate %: concentration or dose not given beside the values; details: MAD lipid peroxidation in vivo; for inhibition rate %: relative to solvent DMSO and Chow averages; for avarage value of OD: serum, TBA method, 532 nm
Excerpt: Experimental principle: Malondialdehyde (MDA) in liposome degradation products could condense with thiobarbituric acid (TBA) to form a red product which has a maximum absorption peak at 532 nm. The spectrophotometer was used to measure the relative absorption value to calculate the antioxidant value.
Reagents: Malondialdehyde (MDA) test kit (article number: A003-1, […], Nanjing Jiancheng), glacial acetic acid of analytically pure grade.
Reagent preparations: 1) Reagent I: Reagent 1 in the kit was taken out from the refrigerator and subjected to natural warming until a transparent liquid is obtained; 2) Reagent II: 170 mL of double-distilled water was added to each bottle and mixed; 3) Reagent III: A dry powder in the kit was dissolved in 60 mL of double-distilled water at 90 to 100° C. After the dry powder was dissolved totally, 30 mL of glacial acetic acid was added and kept in dark place; 4) Standard: 10 nmol/mL tetraethoxypropane.
Experimental procedures: 1) Blank tube: To 2 mL centrifuge tube were added anhydrous ethanol (70 μl), Reagent I (70 μl), Reagent II (0.8 mL) and Reagent III (0.8 mL) in sequence; 2) Standard tube: To 2 mL centrifuge tube were added standard (70 μl), Reagent I (70 μl), Reagent 11 (0.8 mL) and Reagent III (0.8 mL) in sequence; 3) Measuring tube: To 2 mL centrifuge tube were added the serum to be tested and physiological saline (the total volume of serum and physiological saline is 70 μl), Reagent I (70 μl), Reagent II (0.8 mL) and Reagent III (0.8 mL) in sequence; 4) Control tubes: all samples are set up with corresponding control tubes. To a 2 mL centrifuge tube were added the serum to be tested and physiological saline (the total volume of serum and physiological saline is 70 μl), Reagent I (70 μl), Reagent II (0.8 mL) and 50% glacial acetic acid (0.8 mL) in sequence.
After the above reagents were added, the mixture was mixed homogenously. Then the mixture was left in the water bath at 95° C. for 60 minutes. The sample was centrifuged at 4000 rpm for 10 minutes. The supernatant was taken for the measurement of the OD value.
Experimental data processing: the MDA content in serum was calculated as follows: MDA=(OD valuemeasured−OD valuecontrol)/OD valuestandard*concentration of the standard Inhibition rate %=100−(ODsample-average value−average value of Chow)/(average value of the solvent DMSO−average value of Chow)*100

COC(=O)CNCCC(C)(C)c1cc(SC(C)(C)Sc2cc(C(C)(C)C)c(O)c(C(C)(C)C)c2)cc(C(C)(C)C)c1O [Compound 21]
change rate of blood glucose % [1]: −35.5% | change rate of body weight after deduction of DMSO blank % [1]: −1.6% | average body weight after administration/g [1]: 142.5 g | change of body weight/g [1]: 10.7 g | change rate of body weight % [1]: 8.1% | HDL % [1]: 56.3% | LDL % [1]: 14.2% | total cholesterol % [1]: −0.6% | triglyceride % [1]: −6.5% | change rate of blood glucode % [2]: −12.4% | change rate of body weight after deduction of DMSO blank % [2]: −6.1% | change of body weight/g [2]: -16.4 g | change rate of body weight % [2]: −13.6% | HDL % [2]: −70.1% | LDL % [2]: −21.8% | total cholesterol % [2]: 23.5% | triglyceride % [2]: −65.1% | average body weight at 24 weeks/g [2]: 120.0 g | inhibition rate % [3]: 22.3% | Relative inhibition ability on free radicals [3]: 51.2 | inhibition rate % [4]: 53.3% | avarage value of OD [4]: 7.23

CC(C)(Sc1cc(C(C)(C)C)c(O)c(C(C)(C)C)c1)Sc1cc(C(C)(C)C)c(O)c(C(C)(C)CCO)c1 [Compound 8, 2,6-di-tert-butyl-4-((2-((3-(tert-butyl)-4-hydroxy-5-(4-hydroxy-2-methylbutan-2-yl)phenyl)thio)propan-2-yl)thio)phenol]
change rate of blood glucose % [1]: 48.6% | change rate of body weight after deduction of DMSO blank % [1]: −6.1% | average body weight after administration/g [1]: 149.0 g | change of body weight/g [1]: 5.3 g | change rate of body weight % [1]: 3.7% | HDL % [1]: 60.2% | LDL % [1]: 11.1% | total cholesterol % [1]: −7.6% | triglyceride % [1]: 59.1% | inhibition rate % [3]: 37.7% | Relative inhibition ability on free radicals [3]: 86.5 | inhibition rate % [4]: 59.8% | avarage value of OD [4]: 6.98

CC(C)(Sc1cc(C(C)(C)C)c(O)c(C(C)(C)C)c1)Sc1cc(C(C)(C)C)c(O)c(C(C)(C)CCNC(=O)CCCCC2CCSS2)c1 (stereo not drawn) [Compound 23, N-(3-(3-(tert-butyl)-5-((2-((3,5-di-tert-butyl-4-hydroxyphenyl)thio)propan-2-yl)thio)-2-hydroxyphenyl)-3-methylbutyl)-5-(1,2-dithiolan-3-yl)pentanamide]
change rate of blood glucose % [1]: 19.5% | change rate of body weight after deduction of DMSO blank % [1]: −3.8% | average body weight after administration/g [1]: 147.2 g | change of body weight/g [1]: 8.3 g | change rate of body weight % [1]: 6.0% | HDL % [1]: 102.1% | LDL % [1]: −11.2% | total cholesterol % [1]: −6.4% | triglyceride % [1]: 21.9% | inhibition rate % [3]: 12.1% | Relative inhibition ability on free radicals [3]: 27.7 | inhibition rate % [4]: 82.6% | avarage value of OD [4]: 6.10

CC(=O)Oc1ccccc1C(=O)OCCC(C)(C)c1cc(SC(C)(C)Sc2cc(C(C)(C)C)c(O)c(C(C)(C)C)c2)cc(C(C)(C)C)c1O [Compound 13, 3-(3-(tert-butyl)-5-((2-((3,5-di-tert-butyl-4-hydroxyphenyl)thio)propan-2-yl)thio)-2-hydroxyphenyl)-3-methylbutyl 2-acetoxybenzoate]
change rate of blood glucose % [1]: −3.9% | change rate of body weight after deduction of DMSO blank % [1]: −7.8% | average body weight after administration/g [1]: 136.6 g | change of body weight/g [1]: 2.6 g | change rate of body weight % [1]: 2.0% | HDL % [1]: 57.9% | LDL % [1]: −6.7% | total cholesterol % [1]: −9.0% | triglyceride % [1]: −10.0% | inhibition rate % [3]: 34.1% | Relative inhibition ability on free radicals [3]: 78.2 | inhibition rate % [4]: 53.8% | avarage value of OD [4]: 7.21

CC(C)(Sc1cc(C(C)(C)C)c(O)c(C(C)(C)C)c1)Sc1cc(C(C)(C)C)c(O)c(C(C)(C)CCOC(=O)CCCCC2CCSS2)c1 (stereo not drawn) [Compound 12, 3-(3-(tert-butyl)-5-((2-((3,5-di-tert-butyl-4-hydroxyphenyl)thio)propan-2-yl)thio)-2-hydroxyphenyl)-3-methylbutyl 5-(1,2-dithiolan-3-yl)pentanoate]
change rate of blood glucose % [1]: −17.0% | change rate of body weight after deduction of DMSO blank % [1]: −1.6% | average body weight after administration/g [1]: 135.4 g | change of body weight/g [1]: -2.3 g | change rate of body weight % [1]: −1.6% | HDL % [1]: −3.4% | LDL % [1]: −35.8% | total cholesterol % [1]: −30.7% | triglyceride % [1]: −43.0% | change rate of blood glucode % [2]: −29.0% | change rate of body weight after deduction of DMSO blank % [2]: −6.6% | change of body weight/g [2]: -17.3 g | change rate of body weight % [2]: −14.2% | HDL % [2]: −72.1% | LDL % [2]: −32.7% | total cholesterol % [2]: −0.3% | triglyceride % [2]: −51.7% | average body weight at 24 weeks/g [2]: 122.4 g | inhibition rate % [3]: 36.5% | Relative inhibition ability on free radicals [3]: 83.6 | inhibition rate % [4]: 64.0% | avarage value of OD [4]: 6.82

CC(C)(Sc1cc(C(C)(C)C)c(O)c(C(C)(C)C)c1)Sc1cc(C(C)(C)C)c(O)c(C(C)(C)CCOC(=O)CCC(=O)O)c1 [Compound 11, 4-(3-(3-(tert-butyl)-5-((2-((3,5-di-tert-butyl-4-hydroxyphenyl)thio)propan-2-yl)thio)-2-hydroxyphenyl)-3-methylbutoxy)-4-oxobutanoic acid]
change rate of blood glucose % [1]: 35.3% | change rate of body weight after deduction of DMSO blank % [1]: −5.5% | average body weight after administration/g [1]: 140.9 g | change of body weight/g [1]: 5.8 g | change rate of body weight % [1]: 4.3% | HDL % [1]: 49.7% | LDL % [1]: −8.1% | total cholesterol % [1]: −0.4% | triglyceride % [1]: 8.7% | inhibition rate % [3]: 19.9% | Relative inhibition ability on free radicals [3]: 45.5 | inhibition rate % [4]: 44.7% | avarage value of OD [4]: 7.56
